Assay results from ChEMBL document CHEMBL4715878 (J Med Chem, 2020).

Tests used:
[1] = system: MDA-MB-231; experiment: Antiproliferative activity against human MDA-MB-231 cells assessed as reduction in cell viability incubated for 72 hrs by WST8 assay; assay type: functional, cell-based; conditions: MDA-MB-231, 72 h
[2] = system: BT-474; experiment: Antiproliferative activity against human BT474 cells assessed as reduction in cell viability incubated for 72 hrs by WST8 assay; assay type: functional, cell-based; conditions: BT-474, 72 h
[3] = system: AU565; experiment: Antiproliferative activity against human AU565 cells assessed as reduction in cell viability incubated for 72 hrs by WST8 assay; assay type: functional, cell-based; conditions: AU565, 72 h
[4] = system: MCF7; experiment: Antiproliferative activity against human MCF7 cells assessed as reduction in cell viability incubated for 72 hrs by WST8 assay; assay type: functional, cell-based; conditions: MCF7, 72 h
[5] = system: MDA-MB-468; experiment: Antiproliferative activity against human MDA-MB-468 cells assessed as cell growth inhibition after 48 hrs by SRB assay; assay type: functional
[6] = target: Platelet-derived growth factor receptor alpha (Homo sapiens, UniProt P16234); experiment: Effect on human recombinant N-terminal GST-tagged PDGFRalpha (550 to end residues) expressed in baculovirus infected Sf9 insect cells in presence of substrate and [gamma-32ATP] at 10 uM incubated for 30 mins by scintillation counting based radiometry assay relative to control; conditions: 0.5 h, read-out: Activity
Sequence of Platelet-derived growth factor receptor alpha (P16234 whole entry): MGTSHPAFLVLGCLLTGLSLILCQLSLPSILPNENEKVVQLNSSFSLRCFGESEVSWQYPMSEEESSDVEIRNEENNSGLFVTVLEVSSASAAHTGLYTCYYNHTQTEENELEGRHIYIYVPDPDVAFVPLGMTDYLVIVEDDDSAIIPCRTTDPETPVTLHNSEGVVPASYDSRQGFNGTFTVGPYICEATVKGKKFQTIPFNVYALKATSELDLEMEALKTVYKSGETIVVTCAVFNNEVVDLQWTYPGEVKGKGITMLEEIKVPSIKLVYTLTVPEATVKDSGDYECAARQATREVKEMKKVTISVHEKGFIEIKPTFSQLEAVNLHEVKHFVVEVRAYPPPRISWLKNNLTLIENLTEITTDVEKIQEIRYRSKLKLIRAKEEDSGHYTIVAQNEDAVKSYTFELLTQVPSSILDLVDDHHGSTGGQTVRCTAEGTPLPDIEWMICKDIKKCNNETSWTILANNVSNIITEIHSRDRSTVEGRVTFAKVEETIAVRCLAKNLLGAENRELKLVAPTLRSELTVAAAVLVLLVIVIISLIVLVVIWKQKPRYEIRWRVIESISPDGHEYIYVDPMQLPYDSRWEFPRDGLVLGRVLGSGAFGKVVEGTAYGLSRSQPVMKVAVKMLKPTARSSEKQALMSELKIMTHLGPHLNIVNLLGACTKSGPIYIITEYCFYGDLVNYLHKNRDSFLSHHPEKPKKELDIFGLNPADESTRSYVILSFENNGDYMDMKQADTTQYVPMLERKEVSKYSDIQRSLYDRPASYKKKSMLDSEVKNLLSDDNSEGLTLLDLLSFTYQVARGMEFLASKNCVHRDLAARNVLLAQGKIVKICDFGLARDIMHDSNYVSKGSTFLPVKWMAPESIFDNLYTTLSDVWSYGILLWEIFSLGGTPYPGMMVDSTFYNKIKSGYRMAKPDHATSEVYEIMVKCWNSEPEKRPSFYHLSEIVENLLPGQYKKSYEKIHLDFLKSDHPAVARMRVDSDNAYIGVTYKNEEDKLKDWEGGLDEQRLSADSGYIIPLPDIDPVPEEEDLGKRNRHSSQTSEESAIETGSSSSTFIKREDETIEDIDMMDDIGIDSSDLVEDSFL

[7] = target: Receptor tyrosine-protein kinase erbB-4 (Homo sapiens, UniProt Q15303); experiment: Effect on human recombinant N-terminal GST-tagged HER4 (682 to 993) expressed in baculovirus infected Sf9 insect cells in presence of substrate and [gamma-32ATP] at 10 uM incubated for 30 mins by scintillation counting based radiometry assay relative to control; conditions: 0.5 h, read-out: Activity
Sequence of Receptor tyrosine-protein kinase erbB-4 (Q15303 whole entry): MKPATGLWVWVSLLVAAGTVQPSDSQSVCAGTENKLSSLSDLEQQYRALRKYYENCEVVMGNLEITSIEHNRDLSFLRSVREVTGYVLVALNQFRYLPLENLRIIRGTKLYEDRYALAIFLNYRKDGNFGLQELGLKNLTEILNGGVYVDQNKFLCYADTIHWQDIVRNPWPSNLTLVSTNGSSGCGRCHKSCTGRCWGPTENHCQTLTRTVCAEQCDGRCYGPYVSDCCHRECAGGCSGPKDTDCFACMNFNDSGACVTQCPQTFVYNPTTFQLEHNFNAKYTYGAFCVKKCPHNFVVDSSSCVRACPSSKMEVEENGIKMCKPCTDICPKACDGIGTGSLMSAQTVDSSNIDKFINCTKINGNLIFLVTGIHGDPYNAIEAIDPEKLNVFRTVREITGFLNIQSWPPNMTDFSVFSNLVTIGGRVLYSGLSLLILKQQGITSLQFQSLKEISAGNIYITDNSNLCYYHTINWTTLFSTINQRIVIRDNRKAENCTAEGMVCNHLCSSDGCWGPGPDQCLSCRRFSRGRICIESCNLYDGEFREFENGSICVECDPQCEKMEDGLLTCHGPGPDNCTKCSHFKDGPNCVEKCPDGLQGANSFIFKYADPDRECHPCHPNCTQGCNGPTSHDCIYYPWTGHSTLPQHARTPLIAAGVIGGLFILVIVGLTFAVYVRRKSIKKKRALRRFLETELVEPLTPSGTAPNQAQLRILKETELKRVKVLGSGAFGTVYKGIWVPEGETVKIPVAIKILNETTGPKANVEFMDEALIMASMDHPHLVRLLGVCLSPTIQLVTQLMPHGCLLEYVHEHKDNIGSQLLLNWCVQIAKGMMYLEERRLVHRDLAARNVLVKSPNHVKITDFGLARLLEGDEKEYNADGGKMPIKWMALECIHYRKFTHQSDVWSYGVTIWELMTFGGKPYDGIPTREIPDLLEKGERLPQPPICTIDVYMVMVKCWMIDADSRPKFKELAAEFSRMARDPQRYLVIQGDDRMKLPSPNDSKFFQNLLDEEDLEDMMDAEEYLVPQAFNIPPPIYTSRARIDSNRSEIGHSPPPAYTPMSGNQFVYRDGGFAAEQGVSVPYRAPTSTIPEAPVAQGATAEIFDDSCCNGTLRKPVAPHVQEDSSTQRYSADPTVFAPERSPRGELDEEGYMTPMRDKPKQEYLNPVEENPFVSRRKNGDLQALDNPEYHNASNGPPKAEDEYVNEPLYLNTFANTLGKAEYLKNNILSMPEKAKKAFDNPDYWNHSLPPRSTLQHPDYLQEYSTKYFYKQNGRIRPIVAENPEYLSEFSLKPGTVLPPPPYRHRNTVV

[8] = target: T1, Receptor tyrosine-protein kinase erbB-2 (Homo sapiens, UniProt P04626); conditions: Sf9, human, 0.5 h
T1 sequence (P04626 whole entry): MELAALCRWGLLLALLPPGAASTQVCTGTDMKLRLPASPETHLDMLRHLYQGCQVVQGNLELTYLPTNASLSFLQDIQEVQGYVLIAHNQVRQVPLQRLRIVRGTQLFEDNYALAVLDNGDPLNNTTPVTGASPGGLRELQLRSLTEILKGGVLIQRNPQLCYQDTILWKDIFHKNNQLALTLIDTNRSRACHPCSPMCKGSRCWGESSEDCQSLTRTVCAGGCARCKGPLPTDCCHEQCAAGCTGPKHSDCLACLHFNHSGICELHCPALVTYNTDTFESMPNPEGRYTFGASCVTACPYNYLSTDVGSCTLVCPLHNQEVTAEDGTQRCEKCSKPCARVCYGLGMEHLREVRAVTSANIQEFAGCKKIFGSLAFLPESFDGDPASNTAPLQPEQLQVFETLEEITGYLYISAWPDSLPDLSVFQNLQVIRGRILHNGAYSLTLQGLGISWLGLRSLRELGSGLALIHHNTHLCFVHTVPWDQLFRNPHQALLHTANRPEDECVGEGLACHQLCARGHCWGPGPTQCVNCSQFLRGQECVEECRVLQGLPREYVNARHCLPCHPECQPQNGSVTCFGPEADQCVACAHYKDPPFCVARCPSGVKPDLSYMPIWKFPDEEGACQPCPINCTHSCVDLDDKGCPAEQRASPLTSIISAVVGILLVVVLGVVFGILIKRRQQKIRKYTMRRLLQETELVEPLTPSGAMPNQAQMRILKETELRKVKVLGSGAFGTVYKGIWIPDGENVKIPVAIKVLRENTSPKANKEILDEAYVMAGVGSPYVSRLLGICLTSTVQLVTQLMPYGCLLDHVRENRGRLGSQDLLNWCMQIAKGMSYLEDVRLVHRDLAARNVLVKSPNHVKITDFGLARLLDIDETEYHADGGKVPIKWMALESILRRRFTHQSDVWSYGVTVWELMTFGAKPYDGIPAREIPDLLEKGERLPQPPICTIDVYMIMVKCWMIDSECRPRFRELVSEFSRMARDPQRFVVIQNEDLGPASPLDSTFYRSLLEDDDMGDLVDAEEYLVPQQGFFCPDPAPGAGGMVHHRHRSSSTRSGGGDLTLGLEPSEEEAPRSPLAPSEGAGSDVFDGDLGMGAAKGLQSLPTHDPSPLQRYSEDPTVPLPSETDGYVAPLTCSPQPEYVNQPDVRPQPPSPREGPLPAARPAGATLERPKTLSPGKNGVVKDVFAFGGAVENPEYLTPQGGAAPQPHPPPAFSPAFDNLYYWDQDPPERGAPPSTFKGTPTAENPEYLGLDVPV

[9] = target: Epidermal growth factor receptor (Homo sapiens, UniProt P00533); conditions: 0.5 h
Sequence of Epidermal growth factor receptor (P00533 whole entry): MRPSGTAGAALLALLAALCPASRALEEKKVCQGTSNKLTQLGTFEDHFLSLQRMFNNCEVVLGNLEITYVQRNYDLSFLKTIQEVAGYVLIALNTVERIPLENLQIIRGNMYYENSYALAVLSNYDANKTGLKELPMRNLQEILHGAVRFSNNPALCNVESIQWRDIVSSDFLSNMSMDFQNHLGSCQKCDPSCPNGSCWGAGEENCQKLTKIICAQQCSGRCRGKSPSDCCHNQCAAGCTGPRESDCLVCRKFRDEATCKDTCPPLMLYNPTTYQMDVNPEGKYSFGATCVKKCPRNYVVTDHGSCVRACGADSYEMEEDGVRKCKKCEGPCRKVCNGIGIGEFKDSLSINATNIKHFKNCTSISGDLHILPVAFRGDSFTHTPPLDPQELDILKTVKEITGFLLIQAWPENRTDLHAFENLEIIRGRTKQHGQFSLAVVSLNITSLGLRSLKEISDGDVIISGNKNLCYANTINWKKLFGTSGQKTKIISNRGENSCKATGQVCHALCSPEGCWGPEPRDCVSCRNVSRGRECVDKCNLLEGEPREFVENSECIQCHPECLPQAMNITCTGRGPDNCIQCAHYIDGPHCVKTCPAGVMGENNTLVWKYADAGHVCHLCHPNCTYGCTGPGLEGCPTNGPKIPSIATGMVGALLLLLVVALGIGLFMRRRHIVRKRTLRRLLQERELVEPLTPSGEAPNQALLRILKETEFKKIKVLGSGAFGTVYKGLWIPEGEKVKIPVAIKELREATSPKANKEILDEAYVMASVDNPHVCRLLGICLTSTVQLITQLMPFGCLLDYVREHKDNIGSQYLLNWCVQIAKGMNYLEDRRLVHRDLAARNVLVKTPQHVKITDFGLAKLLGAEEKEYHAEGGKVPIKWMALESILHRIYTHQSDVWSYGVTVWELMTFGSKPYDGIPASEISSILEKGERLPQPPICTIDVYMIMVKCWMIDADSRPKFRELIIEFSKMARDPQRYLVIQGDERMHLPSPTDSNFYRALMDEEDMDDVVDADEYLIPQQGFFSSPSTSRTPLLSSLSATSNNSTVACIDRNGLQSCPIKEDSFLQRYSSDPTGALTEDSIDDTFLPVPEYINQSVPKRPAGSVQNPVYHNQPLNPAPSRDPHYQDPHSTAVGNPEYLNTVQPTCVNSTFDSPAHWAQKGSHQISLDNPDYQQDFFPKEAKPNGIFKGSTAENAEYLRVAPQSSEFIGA
Description: Effect on human EGFR in presence of substrate and [gamma-32ATP] at 10 uM incubated for 30 mins by scintillation counting based radiometry assay relative to control

[10] = Antiproliferative activity against human MDA-MB-231 cells assessed as lethality at 10 uM after 48 hrs by SRB assay relative to control; assay type: functional, MDA-MB-23
[11] = system: MDA-MB-468; experiment: Antiproliferative activity against human MDA-MB-468 cells assessed as cell growth inhibition at 10 uM after 48 hrs by SRB assay relative to control; assay type: functional; conditions: read-out: GI
[12] = system: MCF7; experiment: Antiproliferative activity against human MCF7 cells assessed as lethality at 10 uM after 48 hrs by SRB assay relative to control; assay type: functional
[13] = system: Panel NCI-60 (60 carcinoma cell lines); experiment: Antiproliferative activity against human NCI60 cells assessed as lethality at 10 uM after 48 hrs by SRB assay relative to control; assay type: functional
[14] = Antiproliferative activity against human BC assessed as lethality at 10 uM after 48 hrs by SRB assay relative to control; assay type: functional
[15] = system: Panel NCI-60 (60 carcinoma cell lines); experiment: Antiproliferative activity against human NCI60 cells assessed as mean cell growth at 10 uM after 48 hrs by SRB assay relative to control; assay type: functional
[16] = Antiproliferative activity against human BC assessed as cell growth inhibition at 10 uM after 48 hrs by SRB assay relative to control; assay type: functional; conditions: read-out: GI
[17] = system: MDA-MB-468; experiment: Antiproliferative activity against human MDA-MB-468 cells assessed as lethality at 10 uM after 48 hrs by SRB assay relative to control; assay type: functional
[18] = system: MCF7; experiment: Potency index, ratio of lapatinib IC50 to test compound IC50 for antiproliferative activity against human MCF7 cells; assay type: functional
[19] = in vitro; conditions: CD-1, mouse, microsomes
[20] = in vitro; conditions: CD-1, mouse, liver microsomes
[21] = in vitro; conditions: CD-1, mouse, liver microsomes; remark: listed apart in the source
Description: Metabolic stability in CD-1 mouse liver microsomes assessed as parent compound remaining at 100 uM measured after 60 mins in presence of NADPH by LC-MS/MS analysis

[22] = in vitro; conditions: CD-1, mouse, liver microsomes; remark: listed apart in the source
[23] = in vitro; conditions: CD-1, mouse, liver microsomes; remark: listed apart in the source
Description: Metabolic stability in CD-1 mouse liver microsomes assessed as parent compound remaining at 100 uM measured after 60 mins by LC-MS/MS analysis

[24] = target: T1, Receptor tyrosine-protein kinase erbB-2; experiment: Inhibition of HER2 (unknown origin) in presence of substrate incubated for 30 mins by ADP-Glo assay
[25] = target: T1, Receptor tyrosine-protein kinase erbB-2; experiment: Inhibition of wild-type HER2 (unknown origin) at 0.5 nM in presence of substrate incubated for 30 mins by ADP-Glo assay relative to control

SMILES | IC50 [1] [nM] | IC50 [2] [nM] | IC50 [3] [nM] | IC50 [4] [nM] | activity at 10 µM [6] [%] | activity at 10 µM [7] [%] | other results
Cc1cccc(Oc2ccc(Nc3ncnc4ccc(NC(=O)CN(C)C)cc34)cc2Cl)c1 | 4510 | 134 | 154 | 2700 |  |  | GI50 [5]: 200 nM
CCN(CC)CC(=O)Nc1ccc2ncnc(Nc3ccc(Oc4cccc(F)c4)c(Cl)c3)c2c1 | 3920 | 532 | 684 | 5680 |  |  | 
O=C(CN1CCOCC1)Nc1ccc2ncnc(Nc3ccc(Oc4cccc(C(F)(F)F)c4)c(Cl)c3)c2c1 | 8850 | 298 | 364 | 11200 | 82 | -94 | activity at 10 µM [8]: -91%; activity at 10 µM [9]: -71%
CN1CCN(CCCOc2ccc3ncnc(Nc4ccc(Oc5cccc(C(F)(F)F)c5)c(Cl)c4)c3c2)CC1 | 1060 | 200 | 447 | 1680 | 115 | -99 | Activity [10]: 18%; inhibition of growth at 10 µM [11]: 18.8%; Activity [12]: 18%; Activity [13]: 1.3%; Activity [14]: <=78.7%; activity at 10 µM [8]: -92%; Activity [15]: 11.85%; inhibition of growth at 10 µM [16]: ≤ 78.7%; Activity [17]: 18%; activity at 10 µM [9]: -78%; Ratio IC50 [18]: <=20
CN1CCN(CCCOc2ccc3ncnc(Nc4ccc(Oc5cccc(F)c5)c(Cl)c4)c3c2)CC1 | 1700 | 221 | 419 | 913 |  |  | inhibition of growth at 10 µM [11]: 18.8%; Activity [13]: 1.3%; Activity [14]: <=78.7%; Activity [15]: 11.85%; inhibition of growth at 10 µM [16]: ≤ 78.7%; Ratio IC50 [18]: <=20
OCCNCCCOc1ccc2ncnc(Nc3ccc(Oc4cccc(C(F)(F)F)c4)c(Cl)c3)c2c1 | 1950 | 262 | 456 | 1510 |  |  | Activity [10]: 18%; inhibition of growth at 10 µM [11]: 18.8%; Activity [12]: 18%; Activity [13]: 1.3%; Activity [14]: <=78.7%; Activity [15]: 11.85%; inhibition of growth at 10 µM [16]: ≤ 78.7%; Activity [17]: 18%; Ratio IC50 [18]: <=20; GI50 [5]: 600 nM
Cc1cccc(Oc2ccc(Nc3ncnc4ccc(NC(=O)CNCCO)cc34)cc2Cl)c1 | 7830 | 132 | 304 | 10800 | 86 | -99 | activity at 10 µM [8]: -93%; activity at 10 µM [9]: -78%
FC(F)(F)c1cccc(Oc2ccc(Nc3ncnc4ccc(OCCCN5CCOCC5)cc34)cc2Cl)c1 | 6730 | 246 | 348 | 5530 |  |  | GI50 [5]: 500 nM
CCN(CC)CC(=O)Nc1ccc2ncnc(Nc3ccc(Oc4cccc(C)c4)c(Cl)c3)c2c1 | 2830 | 265 | 219 | 2680 |  |  | 
CN1CCN(CC(=O)Nc2ccc3ncnc(Nc4ccc(Oc5cccc(C(F)(F)F)c5)c(Cl)c4)c3c2)CC1 | 2560 | 369 | 441 | 2070 |  |  | Activity [10]: 11.7%; inhibition of growth at 10 µM [11]: 18.8%; Activity [12]: 11.7%; Activity [13]: 1.3%; Activity [14]: <=78.7%; Activity [15]: 11.85%; inhibition of growth at 10 µM [16]: ≤ 78.7%; Activity [17]: 11.7%
CCN(CC)CCCOc1ccc2ncnc(Nc3ccc(Oc4cccc(C(F)(F)F)c4)c(Cl)c3)c2c1 | 1370 | 213 | 289 | 1600 |  |  | Activity [10]: 11.7%; inhibition of growth at 10 µM [11]: 18.8%; Activity [12]: 11.7%; Activity [13]: 1.3%; Activity [14]: <=78.7%; Activity [15]: 11.85%; inhibition of growth at 10 µM [16]: ≤ 78.7%; Activity [17]: 11.7%; Ratio IC50 [18]: <=20; GI50 [5]: 900 nM
C[C@]12CC[C@H]3[C@@H](CCC4=CC(=O)CC[C@@]43C)[C@@H]1CC[C@@H]2O [TESTOSTERONE] |  |  |  |  |  |  | microsomal CLint at 1 h, 100 µM [19]: 279 µL/min/mg; CLint scaled at 1 h, 100 µM [20]: 1110 mL/min/kg
O=C(Nc1ccc2ncnc(Nc3ccc(Oc4cccc(F)c4)c(Cl)c3)c2c1)c1ccc(CN2CCOCC2)cc1 | 11500 | 540 | 923 | 6220 |  |  | 
CS(=O)(=O)CCNCc1ccc(-c2ccc3ncnc(Nc4ccc(OCc5cccc(F)c5)c(Cl)c4)c3c2)o1 [LAPATINIB] | 10400 | 64 | 64 | 6300 | 56 | -99 | activity at 10 µM [8]: -52%
O=C(O)Cc1ccccc1Nc1c(Cl)cccc1Cl [DICLOFENAC] |  |  |  |  |  |  | microsomal CLint at 1 h, 100 µM [19]: 23.1 µL/min/mg; remaining at 1 h, 100 µM [21]: 50.2%; half-life at 1 h, 100 µM [22]: 1 h; CLint scaled at 1 h, 100 µM [20]: 91.5 mL/min/kg; remaining at 1 h, 100 µM [23]: 102%
CN1CCN(CC(=O)Nc2ccc3ncnc(Nc4ccc(Oc5cccc(F)c5)c(Cl)c4)c3c2)CC1 | 5450 | 221 | 491 | 5990 |  |  | 
O=C(CN1CCOCC1)Nc1ccc2ncnc(Nc3ccc(Oc4cccc(F)c4)c(Cl)c3)c2c1 | 30200 | 373 | 545 | 18100 | 18 | -97 | activity at 10 µM [8]: -92%; activity at 10 µM [9]: -67%
CN(C)Cc1ccc(C(=O)Nc2ccc3ncnc(Nc4ccc(Oc5cccc(F)c5)c(Cl)c4)c3c2)cc1 | 5000 | 339 | 225 | 2640 |  |  | Activity [10]: 11.7%; inhibition of growth at 10 µM [11]: 18.8%; Activity [12]: 11.7%; Activity [13]: 1.3%; Activity [14]: <=78.7%; Activity [15]: 11.85%; inhibition of growth at 10 µM [16]: ≤ 78.7%; Activity [17]: 11.7%
Fc1cccc(COc2ccc(Nc3ncnc4ccc(OCCCN5CCOCC5)cc34)cc2Cl)c1 | 7320 | 81 | 149 | 6190 |  |  | 
O=C(CNCCO)Nc1ccc2ncnc(Nc3ccc(OCc4cccc(F)c4)c(Cl)c3)c2c1 | 8780 | 240 | 220 | 8620 | 54 | -98 | IC50 [24]: 10.4 nM; activity at 10 µM [8]: -93%; activity at 10 µM [9]: -78%; inhibition [25]: 3%
O=C(CN1CCOCC1)Nc1ccc2ncnc(Nc3ccc(OCc4cccc(F)c4)c(Cl)c3)c2c1 | 11600 | 117 | 130 | 7970 | 55 | -97 | activity at 10 µM [8]: -92%; activity at 10 µM [9]: -81%
CNC(=O)c1cc(Oc2ccc(NC(=O)Nc3ccc(Cl)c(C(F)(F)F)c3)cc2)ccn1 [SORAFENIB] |  |  |  |  | -55 | -60 | 
CN(C)CC(=O)Nc1ccc2ncnc(Nc3ccc(Oc4cccc(C(F)(F)F)c4)c(Cl)c3)c2c1 | 2660 | 478 | 408 | 5100 |  |  | 
Fc1cccc(Oc2ccc(Nc3ncnc4ccc(OCCCN5CCOCC5)cc34)cc2Cl)c1 | 10200 | 283 | 311 | 8330 |  |  | 
CN1CCN(Cc2ccc(C(=O)Nc3ccc4ncnc(Nc5ccc(Oc6cccc(F)c6)c(Cl)c5)c4c3)cc2)CC1 | 1900 | 506 | 767 | 1620 |  |  | Ratio IC50 [18]: <=20
Cc1cccc(Oc2ccc(Nc3ncnc4ccc(NC(=O)CN5CCOCC5)cc34)cc2Cl)c1 | 13800 | 91 | 152 | 9640 |  |  | 
